Patent US9029337B2, “Modulation of factor 7 expression” (Isis Pharmaceuticals, Inc., priority 2007, dated 2015)
Strand notation (5' to 3'): a small letter for the sugar, then the base; units joined by * are phosphorothioate-linked, units joined directly phosphodiester-linked; [ ] holds rarer units or linkages, { } end groups; capitals alone tell only the bases. e = 2'-O-(2-methoxyethyl) (MOE); [5mC] = 5-methylcytosine; d = 2'-deoxy (DNA)

Each substance was assayed on human Factor 7 mRNA (assay: Antisense inhibition of human Factor 7 with short (14-mer) oligonucleotides in HepB3 cells, electroporation 1,000 nM). Conditions: electroporation, 1,000 nM antisense oligonucleotide, approximately 24 hours, Factor 7 mRNA relative to untreated control cells.
Assay type: cell-based
Description: Short antisense oligonucleotides (shortmers) were designed to target a Factor 7 nucleic acid. The shortmers in Table 17 were designed as 2-10-2 MOE gapmers. The gapmers are 14 nucleotides in length, wherein the central gap segment is comprised of 10 2′-deoxynucleotides and is flanked on both sides (in the 5′ and 3′ directions) by wings comprising 2 nucleotides each. Each nucleotide in the 5′ wing segment and each nucleotide in the 3′ wing segment has a 2′-MOE modification. The internucleoside linkages throughout each gapmer are phosphorothioate (P═S) linkages. All cytidine residues throughout each gapmer are 5-methylcytidines.
Shortmers were evaluated for their ability to reduce human Factor 7 mRNA in HepB3 cells and compared with one 5-10-5 chimeric oligonucleotide from Table 16, ISIS 407939. HepB3 cells at a density of 20,000 cells per well in a 96-well plate were transfected using electroporation with 1,000 nM of antisense oligonucleotide. After a treatment period of approximately 24 hours, RNA was isolated from the cells and Factor 7 mRNA levels were measured by real-time RT-PCR, as described herein. Factor 7 mRNA levels were adjusted according to total RNA content as measured by RIBOGREEN®. Results are presented in Table 17 as percent inhibition of Factor 7 mRNA, relative to untreated control cells. ISIS 407939 is the first oligonucleotide in Table 17 to which the shortmers were compared, and is marked by an asterisk (*).

Compared with “435493 (antisense eG*eA*d[5mC]*d[5mC]*d[5mC]*dT*dG*dG*dT*dG*dT*dA*e[5mC]*eA) [compound 435493]”, “435494 (antisense eA*eG*dA*d[5mC]*d[5mC]*d[5mC]*dT*dG*dG*dT*dG*dT*eA*e[5mC]) [compound 435494]” is lower in “% Inhibition” value: 58% for the first, 47% for the second.

Going from “435495 (antisense eG*eA*dG*dA*d[5mC]*d[5mC]*d[5mC]*dT*dG*dG*dT*dG*eT*eA) [compound 435495]” to “435496 (antisense eG*eG*dA*dG*dA*d[5mC]*d[5mC]*d[5mC]*dT*dG*dG*dT*eG*eT) [compound 435496]”, the “% Inhibition” value rises from 27% to 47%.

Compared with “435497 (antisense eG*eG*dG*dA*dG*dA*d[5mC]*d[5mC]*d[5mC]*dT*dG*dG*eT*eG) [compound 435497]”, “435498 (antisense eT*eG*dG*dG*dA*dG*dA*d[5mC]*d[5mC]*d[5mC]*dT*dG*eG*eT) [compound 435498]” is higher in “% Inhibition” value: 27% for the first, 37% for the second.

Going from “435499 (antisense e[5mC]*eT*dG*dG*dG*dA*dG*dA*d[5mC]*d[5mC]*d[5mC]*dT*eG*eG) [compound 435499]” to “435500 (antisense eA*e[5mC]*dT*dG*dG*dG*dA*dG*dA*d[5mC]*d[5mC]*d[5mC]*eT*eG) [compound 435500]”, the “% Inhibition” value falls from 59% to 49%.

Compared with “435501 (antisense eT*eA*d[5mC]*dT*dG*dG*dG*dA*dG*dA*d[5mC]*d[5mC]*e[5mC]*eT) [compound 435501]”, “435502 (antisense eG*eT*dA*d[5mC]*dT*dG*dG*dG*dA*dG*dA*d[5mC]*e[5mC]*e[5mC]) [compound 435502]” is higher in “% Inhibition” value: 51% for the first, 69% for the second.

First: 435503 (antisense eT*eG*dT*dA*d[5mC]*dT*dG*dG*dG*dA*dG*dA*e[5mC]*e[5mC]) [compound 435503]
Second: 435504 (antisense eA*eT*dG*dT*dA*d[5mC]*dT*dG*dG*dG*dA*dG*eA*e[5mC]) [compound 435504]
The “% Inhibition” value of the first is higher: 17% for the first, 8% for the second.

Going from “435634 (antisense eT*eG*dA*dA*dA*dT*d[5mC]*dT*d[5mC]*dT*dG*d[5mC]*eA*eG) [compound 435634]” to “435635 (antisense e[5mC]*eA*dT*dG*dA*dT*dG*dA*dA*dA*dT*d[5mC]*eT*e[5mC]) [compound 435635]”, the “% Inhibition” value falls from 5% to 0%.

Going from “435636 (antisense eG*eA*dG*dA*d[5mC]*d[5mC]*dA*dT*dG*dA*dT*dG*eA*eA) [compound 435636]” to “435637 (antisense eT*eG*dA*dA*dG*d[5mC]*d[5mC]*d[5mC]*dA*dA*dG*d[5mC]*eA*eG) [compound 435637]”, the “% Inhibition” value falls from 13% to 11%.

Compared with “435638 (antisense eA*eG*d[5mC]*d[5mC]*d[5mC]*dT*dG*dA*dA*dG*d[5mC]*d[5mC]*e[5mC]*eA) [compound 435638]”, “435639 (antisense eT*e[5mC]*d[5mC]*dA*dG*dA*dA*d[5mC]*dA*dG*d[5mC]*dT*eT*e[5mC]) [compound 435639]” is lower in “% Inhibition” value: 55% for the first, 31% for the second.

Compared with “435640 (antisense eT*eG*dT*dA*dA*dG*dA*dA*dA*dT*d[5mC]*d[5mC]*eA*eG) [compound 435640]”, “435641 (antisense eG*eG*dT*d[5mC]*d[5mC]*d[5mC]*d[5mC]*dA*dT*d[5mC]*dA*d[5mC]*eT*eG) [compound 435641]” is higher in “% Inhibition” value: 2% for the first, 51% for the second.

Going from “435642 (antisense eA*e[5mC]*dA*d[5mC]*dT*dG*dG*dT*d[5mC]*d[5mC]*d[5mC]*d[5mC]*eA*eT) [compound 435642]” to “435643 (antisense e[5mC]*eT*dT*dG*d[5mC]*dA*dG*dG*dA*dG*d[5mC]*d[5mC]*e[5mC]*e[5mC]) [compound 435643]”, the “% Inhibition” value falls from 60% to 51%.

Going from “435644 (antisense eT*eG*dG*dT*d[5mC]*d[5mC]*dT*dT*dG*d[5mC]*dA*dG*eG*eA) [compound 435644]” to “435645 (antisense eG*eG*dA*dG*d[5mC]*dT*dG*dG*dT*d[5mC]*d[5mC]*dT*eT*eG) [compound 435645]”, the “% Inhibition” value rises from 30% to 44%.

Going from “435646 (antisense eT*eA*dG*dG*dA*d[5mC]*dT*dG*dG*dA*dG*d[5mC]*eT*eG) [compound 435646]” to “435647 (antisense eA*eG*dA*dT*dA*dT*dA*dG*dG*dA*d[5mC]*dT*eG*eG) [compound 435647]”, the “% Inhibition” value falls from 13% to 0%.

First: 435648 (antisense eG*eA*dA*dG*d[5mC]*dA*dG*dA*dT*dA*dT*dA*eG*eG) [compound 435648]
Second: 435649 (antisense eA*eG*dG*d[5mC]*dA*dG*dA*dA*dG*d[5mC]*dA*dG*eA*eT) [compound 435649]
The “% Inhibition” value of the first is lower: 0% for the first, 21% for the second.

First: 435650 (antisense e[5mC]*e[5mC]*dG*dG*d[5mC]*d[5mC]*d[5mC]*dT*d[5mC]*dG*dA*dA*eG*eG) [compound 435650]
Second: 435651 (antisense eA*e[5mC]*dA*dG*dT*dT*d[5mC]*d[5mC]*dG*dG*d[5mC]*d[5mC]*e[5mC]*eT) [compound 435651]
The “% Inhibition” value of the first is lower: 6% for the first, 71% for the second.

Going from “435652 (antisense e[5mC]*eT*dG*dG*dT*d[5mC]*dA*dT*d[5mC]*d[5mC]*dT*dT*eG*eT) [compound 435652]” to “435653 (antisense eA*eT*d[5mC]*dA*dG*d[5mC]*dT*dG*dG*dT*d[5mC]*dA*eT*e[5mC]) [compound 435653]”, the “% Inhibition” value falls from 48% to 32%.

Going from “435654 (antisense eG*e[5mC]*d[5mC]*dG*dT*dT*d[5mC]*dT*d[5mC]*dG*dT*dT*e[5mC]*eA) [compound 435654]” to “435655 (antisense eA*e[5mC]*dA*dG*d[5mC]*d[5mC]*dG*d[5mC]*d[5mC]*dG*dT*dT*e[5mC]*eT) [compound 435655]”, the “% Inhibition” value falls from 71% to 49%.

Going from “435656 (antisense eA*e[5mC]*dT*dG*d[5mC]*dT*d[5mC]*dA*d[5mC]*dA*dG*d[5mC]*e[5mC]*eG) [compound 435656]” to “435657 (antisense eG*e[5mC]*dA*dG*dT*dA*d[5mC]*dT*dG*d[5mC]*dT*d[5mC]*eA*e[5mC]) [compound 435657]”, the “% Inhibition” value rises from 58% to 69%.

First: 435658 (antisense eT*e[5mC]*dA*d[5mC]*dT*dG*d[5mC]*dA*dG*dT*dA*d[5mC]*eT*eG) [compound 435658]
Second: 435659 (antisense eT*eA*d[5mC]*d[5mC]*d[5mC]*d[5mC]*dT*d[5mC]*dG*dT*dG*dG*e[5mC]*eA) [compound 435659]
The “% Inhibition” value of the first is higher: 60% for the first, 18% for the second.

Compared with “435660 (antisense e[5mC]*e[5mC]*dG*dT*d[5mC]*dT*dG*d[5mC]*d[5mC]*dA*dG*d[5mC]*eA*eG) [compound 435660]”, “435661 (antisense eG*eG*dA*d[5mC]*dA*d[5mC]*d[5mC]*d[5mC]*d[5mC]*dG*dT*d[5mC]*eT*eG) [compound 435661]” is lower in “% Inhibition” value: 58% for the first, 18% for the second.

Going from “435662 (antisense eT*eG*dG*dA*dT*dA*dT*dT*d[5mC]*dA*dA*d[5mC]*eT*eG) [compound 435662]” to “435663 (antisense e[5mC]*e[5mC]*dA*d[5mC]*dA*dT*dG*dG*dA*dT*dA*dT*eT*e[5mC]) [compound 435663]”, the “% Inhibition” value rises from 19% to 50%.

Going from “435664 (antisense eT*eT*dT*dT*dT*d[5mC]*d[5mC]*dA*d[5mC]*dA*dT*dG*eG*eA) [compound 435664]” to “435665 (antisense eA*eG*dG*dT*dA*dT*dT*dT*dT*dT*d[5mC]*d[5mC]*eA*e[5mC]) [compound 435665]”, the “% Inhibition” value falls from 4% to 0%.

Compared with “435666 (antisense eG*eG*dT*dT*dT*dG*d[5mC]*dT*dG*dG*d[5mC]*dA*eT*eT) [compound 435666]”, “435667 (antisense eA*eA*dT*dT*d[5mC]*dG*dG*d[5mC]*d[5mC]*dT*dT*dG*eG*eG) [compound 435667]” is lower in “% Inhibition” value: 71% for the first, 16% for the second.

Compared with “435668 (antisense eT*eG*d[5mC]*d[5mC]*dA*dT*dG*dG*dA*d[5mC]*dA*d[5mC]*eT*e[5mC]) [compound 435668]”, “435669 (antisense eG*eG*dA*d[5mC]*d[5mC]*dT*dG*d[5mC]*d[5mC]*dA*dT*dG*eG*eA) [compound 435669]” is lower in “% Inhibition” value: 75% for the first, 36% for the second.

Compared with “435670 (antisense e[5mC]*eA*dA*d[5mC]*dA*dG*dG*dA*d[5mC]*d[5mC]*dT*dG*e[5mC]*e[5mC]) [compound 435670]”, “435671 (antisense eT*e[5mC]*dA*d[5mC]*d[5mC]*dA*dA*d[5mC]*dA*dA*d[5mC]*dA*eG*eG) [compound 435671]” is lower in “% Inhibition” value: 47% for the first, 28% for the second.
